Where two headings read alike, the source gives them in different places.
How the values were obtained:
S. aureus ClpP (Sa-ClpP) = target: T1, S. aureus ClpP (Sa-ClpP) (Staphylococcus aureus, UniProt Q2G036); experiment: ClpP activation, casein-BODIPY digestion assay (first described method); format: biochemical; settings: first described ClpP activation assay (**); 10 μM saClpP, 25 μg/ml BODIPY FL casein, 37° C.; read-out: ClpP Activation EC50
T1 construct: made in house; host or cells: E. coli BL21 (DE3)
Experimental: The compounds were assayed in a casein digestion assay in order to determine their effect on ClpP activation. Briefly, the assay was carried out using S. aureus ClpP (“Sa-ClpP”) overexpressed in E. coli BL21 (DE3) and purified in a two-step process. Purity of the protein was assessed through SDS PAGE analysis. EC50 evaluations were conducted in triplicate in a 20 μl assay format using a method adapted from Maurizi et al. (Methods Enzymol. (1994) 244:314-331.). Each well contained 10 μM saClpP, 25 μg/ml BODIPY FL casein (Invitrogen Corporation, San Diego, Calif.), and test compound in concentrations ranging between 0-100 μM in assay buffer (50 mM Tris pH 8, 200 mM KCl, and 1 mM TCEP). The reaction took place at 37° C. Fluorescence (excitation 485 nm; emission 528 nm) was measured in five minute intervals over a 45 min period using a BioTek HT fluorescence microplate reader (BioTek Instruments, Inc., Winooski, Vt.). Velocity of each reaction was calculated and data was fit to a dose response curve using GraphPad Prism® software (GraphPad Software, Inc., La Jolla, Calif.). EC50 is the effective concentration of compound which causes 50% activation of S. aureus ClpP in the foregoing BODIPY FL casein assay.

Sa-ClpP [1] = target: T2, Sa-ClpP (Staphylococcus aureus, UniProt Q2G036); experiment: ClpP activation, EnzCheck Protease Assay with Bodipy-FL casein (second described method); format: biochemical, S. aureus; settings: read-out: ClpP Activation EC50 (converted)
T2 construct: made in house; host or cells: E. coli BL21 (DE3)
Method in brief: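 Sa-ClpP (2 μM in master mix) with Bodipy-FL casein (2 μM in master mix) in Tris-HCl pH 8.0, 0.01% Triton X-100, compounds in 2% DMSO, triplicate. Fluorescence (ex 485/em 520 nm) followed 30 min; degradation slopes normalized to ADEP4 and DMSO controls, EC50 and % activation by four-parameter fit.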

Sa-ClpP [2] = target: T2, Sa-ClpP; experiment: ADEP displacement fluorescence polarization assay; format: binding, S. aureus; settings: 1 μM Sa-ClpP, 50 nM FP probe ADEP 2591; read-out: ADEP Displacement IC50
Method in brief: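 Displacement of TAMRA-labelled ADEP 2591 probe (50 nM) from 1 μM Sa-ClpP, pre-equilibrated 1 h in Tris·HCl pH 8.0 with 2% DMSO, then 120 min at room temperature with compound, triplicate. Polarization (mP) read ex 530/em 579 nm, normalised to 20 μM ADEP 2378 and DMSO controls; four-parameter fit.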

[3] = Cytotoxicity assay, CellTiter-Glo cell viability; format: cell-based; settings: African green monkey
Method in brief: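 Vero cells seeded overnight at 37 °C in DMEM with 10% FBS, then exposed to serial dilutions of compound for 72 h. Viability read by CellTiter-Glo luminescence; IC50 from duplicates, given as the range of two independent experiments.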

E. coli K12ΔtolC = experiment: Minimal inhibitory concentration, microbroth dilution; format: cell-based
Method in brief: (§1)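 Compound was diluted twofold in the appropriate broth. Bacterial suspension (approx. 10^5 cfu/mL) was then added in equal volume, giving a maximum test concentration of 200 μM. After aerobic overnight incubation at 37 °C, wells were inspected visually for growth.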

S. aureus USA 300 ΔClpP = experiment: as above; format: cell-based, Staphylococcus aureus; settings: ClpP inactivated strain
Method in brief: as §1

T2 sequence (Q2G036 whole entry): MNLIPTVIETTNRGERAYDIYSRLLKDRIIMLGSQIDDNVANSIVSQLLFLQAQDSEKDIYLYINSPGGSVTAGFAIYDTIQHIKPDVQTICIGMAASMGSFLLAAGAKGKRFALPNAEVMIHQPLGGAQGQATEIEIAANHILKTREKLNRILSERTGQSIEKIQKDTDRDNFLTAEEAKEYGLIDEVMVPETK
T1 sequence (Q2G036 whole entry): as above

Compound | EC50 (S. aureus ClpP (Sa-ClpP)) [µM] | EC50 (Sa-ClpP [1]) [µM] | IC50 (Sa-ClpP [2]) [µM] | IC50 at 72 h [3] [µM] | Minimal Inhibitory Concentration E. coli K12ΔtolC (E. coli K12ΔtolC) [µM] | Minimal Inhibitory Concentration S. aureus USA 300 ΔClpP (S. aureus USA 300 ΔClpP) [µM] | IC50 at 72 h ([3]; Vero cells, 72 hours, read-out: Cytotoxicity IC50) [µM]
COc1cccc(NC(=O)N[C@@H](Cc2ccccc2)C(=O)N[C@H]2COC(=O)[C@@H]3C[C@@H](C)CN3C(=O)[C@H](C)NC(=O)[C@@H]3CCCCN3C(=O)[C@@H]3CCCN3C2=O)c1 [Compound 8, (S)—N-((2R,6S,8aS,14aS,20S,23aS)-2,6-Dimethyl-5,8,14,19,23-Pentaoxooctadecahydro-1H,5H,14H,19H-Pyrido[2,1-I]Dipyrrolo[2,1-C:2′,1′-L][1]Oxa[4,7,10,13]Tetraazacyclohexadecin-20-Yl)-2-(3-(3-Methoxyphenyl)Ureido)-3-Phenylpropanamide] | 3 ± 0.4 | 1.3 | 16.3 ± 0.8 | > 100 | 200 |  | 
CCc1ccc(NC(=O)N[C@@H](Cc2ccccc2)C(=O)N[C@H]2COC(=O)[C@@H]3C[C@@H](C)CN3C(=O)[C@H](C)NC(=O)[C@@H]3CCCCN3C(=O)[C@@H]3CCCN3C2=O)cc1 [Compound 4, (S)—N-((2R,6S,8aS,14aS,20S,23aS)-2,6-Dimethyl-5,8,14,19,23-Pentaoxooctadecahydro-1H,5H,14H,19H-Pyrido[2,1-1]Dipyrrolo[2,1-C:2′,1′-L][1]Oxa[4,7,10,13]Tetraazacyclohexadecin-20-Yl)-2-(3-(4-Ethylphenyl)Ureido)-3-Phenylpropanamide] | 1.4 ± 0.1 | 5.5 | 29 ± 2.1 | 73.7 ± 8.4 | 25 |  | 
O=C(N[C@H](CO)[C@H](O)c1ccc([N+](=O)[O-])cc1)C(Cl)Cl [Chloroamphenicol, chloramphenicol, reference compound] |  |  |  |  | 0.78 | 6.3 | 
C[C@H]1C[C@H]2C(=O)O[C@@H](C)[C@H](NC(=O)[C@H](Cc3cc(F)cc(F)c3)NC(=O)Nc3ccc(OC(F)(F)F)cc3)C(=O)N3CCC[C@H]3C(=O)N3CCCC[C@H]3C(=O)N[C@@H](C)C(=O)N2C1 [Compound 22, (S)-3-(3,5-Difluorophenyl)-2-(3-(4-(Trifluoromethoxy)Phenyl)Ureido)-N-((2R,6S,8aS,14aS,20S,21S,23aS)-2,6,21-Trimethyl-5,8,14,19,23-Pentaoxooctadecahydro-1H,5H,14H,19H-Pyrido[2,1-I]Dipyrrolo[2,1-C:2′,1′-L][1]Oxa[4,7,10,13]Tetraazacyclohexadecin-20-Yl)Propanamide] | 3.6 ± 0.4 | 0.32 | 8.9 ± 0.3 |  |  |  | 52.3 ± 7.7
C[C@@H]1C[C@H]2C(=O)OC[C@H](NC(=O)[C@H](Cc3ccccc3)NC(=O)Nc3ccc(OC(F)(F)F)cc3)C(=O)N3CCC[C@H]3C(=O)N3CCCC[C@H]3C(=O)N[C@@H](C)C(=O)N2C1 [Compound 2, (S)—N-((2R,6S,8aS,14aS,20S,23aS)-2,6-Dimethyl-5,8,14,19,23-Pentaoxooctadecahydro-1H,5H,14H,19H-Pyrido[2,1-I]Dipyrrolo[2,1-C:2′,1′-L][1]Oxa[4,7,10,13]Tetraazacyclohexadecin-20-Yl)-3-Phenyl-2-(3-(4-(Trifluoromethoxy)Phenyl)Ureido)Propanamide] | 2.6 ± 0.4 | 0.5 | 7.66 ± 0.3 | 88.3 ± 15.2 | 12.5 |  | 

Reference: patent publication US9879050B2, “Substituted urea depsipeptide analogs as activators of the CLPP endopeptidase” (priority 2013, dated 2018)
